Measured values reported in PubChem BioAssay AID248 (DTP/NCI, 2004).
Where “and” joins values, the source holds several entries; their conditions need not be identical. Identical values can stand only once. Toxic doses and inconclusive results are not listed. Cut-off read from the data, not from the text of the source: active = T/C of 150% or more; inactive = T/C below 125%.

System: L1210 leukemia ip in BDF1 mice, survival T/C
Assay: NCI In Vivo Anticancer Drug Screen. Data for tumor model L1210 Leukemia (intraperitoneal) in B6D2F1 (BDF1) mice
Settings: endpoint: mean survival time, higher = longer survival
How it was run: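 Tumor cells were implanted, animals were treated, and survival was followed. The result divides the treated measurement by the vehicle-control measurement.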

[1] = dose: 12.5 mg/kg/injection, schedule: Q01DX009 (ip), vehicle: saline
[2] = dose: 25.0 mg/kg/injection, schedule: Q04DX003 (ip), vehicle: saline
[3] = dose: 50.0 mg/kg/injection, schedule: Q04DX003 (ip), vehicle: saline
[4] = dose: 100.0 mg/kg/injection, schedule: Q04DX003 (ip), vehicle: saline
[5] = dose: 50.0 mg/kg/injection, schedule: Q01DX009 (ip), vehicle: saline with Tween-80
[6] = dose: 100.0 mg/kg/injection, schedule: Q01DX009 (ip), vehicle: saline with Tween-80
[7] = dose: 200.0 mg/kg/injection, schedule: Q01DX009 (ip), vehicle: saline with Tween-80
[8] = dose: 100.0 mg/kg/injection, schedule: Q01DX009 (ip), vehicle: saline
[9] = dose: 100.0 mg/kg/injection, schedule: Q04DX003 (ip), vehicle: saline with Tween-80
[10] = dose: 200.0 mg/kg/injection, schedule: Q04DX003 (ip), vehicle: saline with Tween-80
[11] = dose: 400.0 mg/kg/injection, schedule: Q04DX003 (ip), vehicle: saline with Tween-80
[12] = dose: 100.0 mg/kg/injection, schedule: Q01DX009 (ip), vehicle: Klucel (hydroxypropylcellulose) (HPC)
[13] = dose: 200.0 mg/kg/injection, schedule: Q01DX009 (ip), vehicle: Klucel (hydroxypropylcellulose) (HPC)
[14] = dose: 400.0 mg/kg/injection, schedule: Q01DX009 (ip), vehicle: Klucel (hydroxypropylcellulose) (HPC)
[15] = dose: 100.0 mg/kg/injection, schedule: Q01DX001 (ip), vehicle: Klucel (hydroxypropylcellulose) (HPC)
[16] = dose: 200.0 mg/kg/injection, schedule: Q01DX001 (ip), vehicle: Klucel (hydroxypropylcellulose) (HPC)
[17] = dose: 400.0 mg/kg/injection, schedule: Q01DX001 (ip), vehicle: Klucel (hydroxypropylcellulose) (HPC)
[18] = dose: 100.0 mg/kg/injection, schedule: Q04DX003 (ip), vehicle: Klucel (hydroxypropylcellulose) (HPC)
[19] = dose: 200.0 mg/kg/injection, schedule: Q04DX003 (ip), vehicle: Klucel (hydroxypropylcellulose) (HPC)
[20] = dose: 400.0 mg/kg/injection, schedule: Q04DX003 (ip), vehicle: Klucel (hydroxypropylcellulose) (HPC)
[21] = dose: 100.0 mg/kg/injection, schedule: Q04DX002 (ip), vehicle: saline with Tween-80
[22] = dose: 200.0 mg/kg/injection, schedule: Q04DX002 (ip), vehicle: saline with Tween-80
[23] = dose: 25.0 mg/kg/injection, schedule: Q01DX009 (ip), vehicle: saline
[24] = dose: 50.0 mg/kg/injection, schedule: Q01DX009 (ip), vehicle: saline
[25] = dose: 100.0 mg/kg/injection, schedule: Q01DX001 (ip), vehicle: saline
[26] = dose: 200.0 mg/kg/injection, schedule: Q01DX001 (ip), vehicle: saline

Measured: T/C

CN1CCN(CCC=C2c3ccccc3Sc3ccc(S(=O)(=O)N(C)C)cc32)CC1
inactive: dose: 0.39 mg/kg/injection, schedule: Q01DX009 (ip), vehicle: saline 114 % of control | dose: 0.78 mg/kg/injection, schedule: Q01DX009 (ip), vehicle: saline 101 % of control | dose: 1.56 mg/kg/injection, schedule: Q01DX009 (ip), vehicle: saline 121 % of control | dose: 3.12 mg/kg/injection, schedule: Q01DX009 (ip), vehicle: saline 114 % of control | dose: 6.25 mg/kg/injection, schedule: Q01DX009 (ip), vehicle: saline 114 % of control | [1] 102 % of control | [2] 95 % of control | [3] 95 % of control | dose: 100.0 mg/kg/injection, schedule: Q01DX001 (ip), vehicle: carboxymethylcellulose (CMC) 121 % of control | [4] 122 % of control | dose: 200.0 mg/kg/injection, schedule: Q01DX001 (ip), vehicle: carboxymethylcellulose (CMC) 103 % of control | dose: 200.0 mg/kg/injection, schedule: Q04DX003 (ip), vehicle: saline 104 % of control | dose: 400.0 mg/kg/injection, schedule: Q01DX001 (ip), vehicle: carboxymethylcellulose (CMC) 118 % of control

CCCCNC(C)(C)C(=O)c1ccco1
inactive: [5] 100 % of control | [6] 97 % of control | [7] 111 % of control

CNC(=O)N(C)Cc1ccccc1
inactive: [8] 107 % of control | [9] 104 % of control | dose: 200.0 mg/kg/injection, schedule: Q01DX009 (ip), vehicle: saline 115 % of control | [10] 93 % of control | dose: 400.0 mg/kg/injection, schedule: Q01DX009 (ip), vehicle: saline 117 % of control | [11] 104 % of control

CCCCCCCCOc1ccc(C)cc1
inactive: [12] 107 % of control | [13] 94 % of control | [14] 97 % of control

CC(C)C(C)/C=C\C(C)C1CCC2=C3CCC4CC(O)CCC4(C)C3CCC21C (stereo not given)
inactive: [15] 97 % of control | [16] 97 % of control | [17] 93 % of control

Cc1ccc2nc3c4ccccc4c4ccccc4c3nc2c1
inactive: [12] 101 % of control | [18] 105 % of control | [13] 102 % of control | [19] 105 % of control | [14] 101 % of control | [20] 98 % of control

CC(=O)Nc1ccc(SCCCc2c(N)nc(N)nc2N)cc1
inactive: [18] 100 % of control | [19] 99 % of control | [20] 97 % of control

O=Nc1c(O)[nH]c(=O)[nH]c1=O
inactive: [15] 95 % of control | [16] 106 % of control

[Cl][Sn]([Cl])([c]1ccccc1)[c]1ccccc1.c1ccc(-c2nnc(-c3ccccn3)nc2-c2ccccc2)cc1
inactive: dose: 3.12 mg/kg/injection, schedule: Q04DX003 (ip), vehicle: saline with Tween-80 96 % of control | dose: 6.25 mg/kg/injection, schedule: Q04DX003 (ip), vehicle: saline with Tween-80 104 % of control | dose: 6.25 mg/kg/injection, schedule: Q04DX003 (ip), vehicle: saline 93 % of control | dose: 12.5 mg/kg/injection, schedule: Q04DX003 (ip), vehicle: saline with Tween-80 112 % of control | dose: 12.5 mg/kg/injection, schedule: Q04DX003 (ip), vehicle: saline 98 % of control | [2] 120 % of control

Cc1nc(Cl)cc(Cl)c1C
inactive: dose: 100.0 mg/kg/injection, schedule: Q04DX003 (ip), vehicle: other 106 % of control | dose: 178.0 mg/kg/injection, schedule: Q04DX003 (ip), vehicle: other 103 % of control | dose: 200.0 mg/kg/injection, schedule: Q04DX003 (ip), vehicle: other 104 % of control | dose: 266.0 mg/kg/injection, schedule: Q04DX003 (ip), vehicle: other 103 % of control | dose: 400.0 mg/kg/injection, schedule: Q04DX003 (ip), vehicle: other 89 % of control

O=C1CC(O)(c2ccccc2)C2(c3ccccc3)OC2O1 (stereo not given)
inactive: [15] 101 % of control | [12] 96 % of control | [16] 101 % of control | [13] 93 % of control | [17] 101 % of control | [14] 95 % of control

COC(=O)NNc1ccccc1C(=O)OC
inactive: [21] 88 % of control | [22] 88 % of control | dose: 400.0 mg/kg/injection, schedule: Q04DX002 (ip), vehicle: saline with Tween-80 98 % of control

CC(C)C(N)(CCN1CCOCC1)c1cccc2ccccc12 (stereo not given)
inactive: [6] 99 % of control | [21] 88 % of control | [7] 101 % of control | [22] 92 % of control

COc1ccc(OC(=O)CCCl)cc1
inactive: [5] 98 % of control | dose: 50.0 mg/kg/injection, schedule: Q04DX003 (ip), vehicle: saline with Tween-80 104 % of control | [6] 104 % of control | [9] 95 % of control | [7] 105 % of control | [10] 95 % of control | dose: 400.0 mg/kg/injection, schedule: Q01DX009 (ip), vehicle: saline with Tween-80 121 % of control | [11] 104 % of control

CSCC(C)(C)NC(=O)NCCCl
inactive: dose: 100.0 mg/kg/injection, schedule: Q04DX002 (ip), vehicle: Klucel (hydroxypropylcellulose) (HPC) 89 % of control | dose: 200.0 mg/kg/injection, schedule: Q04DX002 (ip), vehicle: Klucel (hydroxypropylcellulose) (HPC) 89 % of control

CCN(CC)CCOc1cc(C)ccc1C
inactive: [23] 98 % of control | [24] 93 % of control | [3] 100 % of control | [8] 95 % of control | [4] 98 % of control

CCn1c(=O)sc2cc(Cl)ccc21
inactive: [25] 102 % of control | [26] 98 % of control | dose: 400.0 mg/kg/injection, schedule: Q01DX001 (ip), vehicle: saline 108 % of control

Cc1n(Cc2ccccc2)cc[n+]1C
inactive: [1] 109 % of control and 119 % of control | dose: 12.5 mg/kg/injection, schedule: Q04DX002 (ip), vehicle: saline 100 % of control and 111 % of control | [23] 117 % of control and 119 % of control | dose: 25.0 mg/kg/injection, schedule: Q04DX002 (ip), vehicle: saline 100 % of control | [24] 93 % of control

CN=C(NC(C)C)c1ccc(NC(=O)c2ccc(C(=O)Nc3ccc(C(=NC)NC(C)C)cc3)cc2)cc1
inactive: dose: 2.0 mg/kg/injection, schedule: Q01DX Z (ip), vehicle: carboxymethylcellulose (CMC) 97 % of control | dose: 4.0 mg/kg/injection, schedule: Q01DX Z (ip), vehicle: carboxymethylcellulose (CMC) 101 % of control | dose: 6.0 mg/kg/injection, schedule: Q01DX Z (ip), vehicle: carboxymethylcellulose (CMC) 112 % of control | dose: 25.0 mg/kg/injection, schedule: Q01DX Z (oral), vehicle: carboxymethylcellulose (CMC) 96 % of control | dose: 31.0 mg/kg/injection, schedule: Q01DX Z (ip), vehicle: methylcellulose (MC) 117 % of control | dose: 50.0 mg/kg/injection, schedule: Q01DX Z (oral), vehicle: carboxymethylcellulose (CMC) 101 % of control | dose: 100.0 mg/kg/injection, schedule: Q01DX Z (oral), vehicle: carboxymethylcellulose (CMC) 96 % of control | dose: 200.0 mg/kg/injection, schedule: Q01DX Z (oral), vehicle: carboxymethylcellulose (CMC) 101 % of control | dose: 250.0 mg/kg/injection, schedule: Q01DX Z (ip), vehicle: methylcellulose (MC) 97 % of control
active: dose: 16.0 mg/kg/injection, schedule: Q01DX Z (ip), vehicle: carboxymethylcellulose (CMC) 151 % of control | dose: 62.5 mg/kg/injection, schedule: Q01DX Z (ip), vehicle: methylcellulose (MC) 157 % of control | dose: 125.0 mg/kg/injection, schedule: Q01DX Z (ip), vehicle: methylcellulose (MC) 157 % of control

Clc1c2c(nc3ccccc13)CCCC2
inactive: [25] 95 % of control | [26] 95 % of control
